Test results as given in patent US8871962B2, “Method for producing sanshool” (Tsumura & Co., priority 2010, dated 2014).

Experiment: Stability test of sample solutions under exposure to fluorescent light (HPLC peak area)
Format: physicochemical
Details: acetonitrile sample solution (HαS 0.26 mg/mL, compound 5 0.49 mg/mL), room temperature, 24 hours under fluorescent light
Protocol: (HPLC Analysis Conditions)
Column: TSK-GEL 80TS (φ4.6 mm×150 mm) (Tosoh, Japan); column temperature: 40° C.; flow rate: 1.0 mL/min; measurement wavelength: 200 to 400 nm; mobile phase: Liquid A acetonitrile, Liquid B 0.1% Na2S2O3 aqueous solution (Liquid A: 40%, Liquid B: 60%); and measurement mode: isocratic mode.
HαS (27.6 mg) and the compound 5 (50.4 mg) were diluted to 100 mL with anhydrous acetonitrile (HPLC grade) to prepare 0.26 mg/mL and 0.49 mg/mL sample solutions. The sample solutions, dispensed in 50 mL aliquots, were allowed to stand at room temperature for 24 hours under exposure to fluorescent light. Quantitative analysis was performed under the above HPLC analysis conditions to measure peak area values of the HαS and the diene iron complex compound (compound 5).

| peak area value (content) relative to initial level after light exposure | Compound |
| --- | --- |
| approximately 10% | C/C=C/C=C/C=C\CC/C=C/C(=O)NCC(C)(C)O [HαS, (2E,6Z,8E,10E)-N-(2-hydroxy-2-methylpropyl)dodeca-2,6,8,10-tetraenamide] |
| approximately 80% | tricarbonyl[(8,9,10,11-η)-(2E,6Z,8E,10E)-N-(2-hydroxy-2-methylpropyl)dodeca-2,6,8,10-tetraenamide]iron [compound 5] |
